Patent US20230332203A1, “RAPID ANTIBIOTIC SUSCEPTIBILITY TESTING” (IOWA STATE UNIVERSITY RESEARCH FOUNDATION, INC., priority 2022, published 2023)

Assays:
[1] = system: Staphylococcus aureus 25923 (susceptible); assay: Microdroplet culture with D2O labeling, average mass of PG 32:0 by MALDI-MS (Orbitrap and Biotyper); assay type: cell-based; conditions: increasing methicillin concentration, 20% D2O, 4 hours
Protocol: (§1) The disclosed method was tested using the Bruker Biotyper and the results were compared to data using the method that was previously established on an Orbitrap mass spectrometer. A common cell membrane lipid, phosphatidylglycerol (PG) 32:0 was used as an indicator. Since a higher average mass is indicative of more growth, a reduced average mass indicates susceptibility to methicillin. The Biotyper is an economical and more accessible instrument but has less resolution and more error in the measurements. However, data from the Biotyper results in the same conclusions when compared to data from the Orbitrap. […]
(§2) μFocus samples were analyzed in negative ion mode using an Orbitrap Q Exactive HF mass spectrometer (Thermo Scientific, San Jose, CA) with a Spectroglyph MALDI source (Spectroglyph, Kennewick, WA) equipped with a 349 nm laser (Explorer One; Spectra Physics, Milpitas, CA) using a 500 Hz repetition rate and ˜4 μJ per shot. Samples were analyzed at 120,000 resolving power at m/z 200. Spots were analyzed using 60 μm spatial resolution to ensure a good representation of the sample and resulting spectra were averaged in Xcalibur. Masslists from averaged spectra were then exported to .csv files and average mass of membrane lipids were calculated using a custom Python script. […]

[2] = system: methicillin-resistant Staphylococcus aureus 33591; assay: as above; assay type: cell-based; conditions: range of methicillin concentrations, 20% D2O, 4 hours
Protocol: as §1, §2

## COc1cccc(OC)c1C(=O)N[C@@H]1C(=O)N2[C@@H]1SC(C)(C)[C@@H]2C(=O)O [methicillin]
[1]
  effect on average mass of PG 32:0: constant decrease
[2]
  effect on average mass of PG 32:0: does not decrease the average mass significantly
